Results on 39 compounds are retold here after patent US20240034729A9, “HETEROCYCLIC COMPOUND, INTERMEDIATE, PREPARATION METHOD THEREFOR AND APPLICATION THEREOF” (WUHAN LL SCIENCE AND TECHNOLOGY DEVELOPMENT CO., LTD., priority 2018, published 2024).

Read-outs that look alike come from different tables or passages of the source.

The target in the assay is hP2X3 (human purinergic P2X receptor subtype 3) (Homo sapiens (Human), UniProt P56373). Briefly: FLIPR calcium assay, hP2X3 expressed in HEK293 cells. In kind it is cell-based. The note with it: read-out: P2X3 IC50.
[1] abbreviates: HEK293 cells expressing hP2X3, agonist BZ-ATP 2.5 μM, class symbols.

Sequence of hP2X3 (human purinergic P2X receptor subtype 3) (P56373 whole entry): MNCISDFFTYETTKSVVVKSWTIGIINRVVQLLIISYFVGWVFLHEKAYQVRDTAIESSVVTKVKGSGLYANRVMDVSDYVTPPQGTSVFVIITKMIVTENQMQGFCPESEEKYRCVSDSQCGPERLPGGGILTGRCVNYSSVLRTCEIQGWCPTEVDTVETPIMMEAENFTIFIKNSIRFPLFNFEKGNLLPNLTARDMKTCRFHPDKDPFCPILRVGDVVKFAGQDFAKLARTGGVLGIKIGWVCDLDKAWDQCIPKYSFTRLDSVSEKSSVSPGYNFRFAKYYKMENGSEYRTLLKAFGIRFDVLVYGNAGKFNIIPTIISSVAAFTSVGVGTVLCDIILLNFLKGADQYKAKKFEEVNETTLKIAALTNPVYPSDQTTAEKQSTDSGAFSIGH

Consider `COC(=O)N1CCO[C@@H](Cc2c(-c3c(F)cc(NC(C)=O)cc3F)nc3cc(C(F)(F)F)ccn23)C1` [Compound 153, methyl (S)-2-((2-(4-acetamido-2,6-difluorophenyl)-7-(trifluoromethyl)imidazo[1,2-a]pyridin-3-yl)methyl)morpholine-4-carboxylate], for which the IC50 is 50 to 200 nM.
Regarding `COC(=O)N1CCO[C@@H](Cc2c(-c3c(F)cc(-n4cc(OC)cn4)cc3F)nc3cc(C)ccn23)C1` [Compound 129, methyl (S)-2-((2-(2,6-difluoro-4-(4-methoxy-1H-pyrazol-1-yl)phenyl)-7-methylimidazo[1,2-a]pyridin-3-yl)methyl)morpholine-4-carboxylate], the concentration for half-maximal inhibition (IC50) lay within 10 to 50 nM.
Still for that read-out and setting: next, `CCC(=O)N1CCO[C@@H](Cc2c(-c3c(F)cc(NC(C)=O)cc3F)nc3cc(C)ccn23)C1` [Compound 156]: less than 10 nM; `COC(=O)N1CCC[C@@H](Cc2c(-c3c(F)cc(S(N)(=O)=O)cc3F)nc3cc(Cl)ccn23)C1` [Compound 188]: 9 nM; `COC(=O)c1cc(F)c(-c2nc3cc(C)ccn3c2C[C@H]2CN(C(=O)OC)CCO2)c(F)c1` [Compound 49, methyl (S)-2-((2-(2,6-difluoro-4-carbomethoxyphenyl)-7-methylimidazo[1,2-a]pyridin-3-yl)-methyl)morpholine-4-carboxylate]: less than 10 nM.
On to `COC(=O)N1CCO[C@@H](Cc2c(-c3c(F)cc(O)cc3F)nc3cc(C)ccn23)C1` [Compound 35, methyl (S)-2-((2-(2,6-difluoro-4-hydroxyphenyl)-7-methylimidazo[1,2-a]pyridin-3-yl)methyl)morpholine-4-carboxylate], for which the IC50 under setting [1] lay within 200 to 5000 nM.
The same measure, in the same setting: next, `CNC(=O)Oc1cc(F)c(-c2nc3cc(C)ccn3c2C[C@H]2CN(C(=O)OC)CCO2)c(F)c1` [Compound 36, methyl (S)-2-((2-(2,6-difluoro-4-(methylcarbamoyloxy)phenyl)-7-methylimidazo[1,2-a]pyridin-3-yl)methyl)morpholine-4-carboxylate]: 10 to 50 nM.
Turning to `COC(=O)N1CCO[C@@H](Cc2c(-c3ccc(S(N)(=O)=O)nc3Cl)nc3cc(C)ccn23)C1` [Compound 190], the IC50 is less than 10 nM.
Still for that read-out and setting: the same measure for `COC(=O)N1CCO[C@@H](Cc2c(-c3c(F)cc(-n4ccc(C(C)(C)O)n4)cc3F)nc3cc(C)ccn23)C1` [Compound 126, methyl (S)-2-((2-(2,6-difluoro-4-(3-(2-hydroxypropan-2-yl)-1H-pyrazol-1-yl)phenyl)-7-methylimidazo[1,2-a]pyridin-3-yl)methyl)morpholine-4-carboxylate]: 10 to 50 nM; for `COC(=O)N1CCO[C@@H](Cc2c(-c3c(F)cc(Nc4ccc(Cl)o4)cc3F)nc3cc(C)ccn23)C1` [Compound 72]: 50 to 200 nM; for `COC(=O)N1CCO[C@@H](Cc2c(-c3c(F)cc(NC(C)=O)cc3F)nc3cc(F)ccn23)C1` [Compound 148]: less than 10 nM.
In the case of `COC(=O)N1CCO[C@@H](Cc2c(-c3c(F)cc(NC(=O)CC(C)(C)C(=O)O)cc3F)nc3cc(C)ccn23)C1` [Compound 91], the IC50 is less than 10 nM.
Consider `COC(=O)N1CCO[C@@H](Cc2c(-c3c(F)cc(NC(=O)C#CC(=O)O)cc3F)nc3cc(C)ccn23)C1` [Compound 88], for which the IC50 was 10 to 50 nM.
`CNC(=O)c1cc(F)c(-c2nc3cc(C)ccn3c2CN2CCOCC2=O)c(F)c1` [Compound 47, 3,5-difluoro-N-methyl-4-(7-methyl-3-((3-oxo-4-morpholinyl)methyl)imidazo[1,2-a]pyridin-2-yl)benzamide]: the IC50 under setting [1] lay in the range of 200 to 5000 nM.
For the compound `COC(=O)N1CCO[C@@H](Cc2c(-c3c(F)cc(-c4nc(C(=O)O)co4)cc3F)nc3cc(C)ccn23)C1` [Compound 114, (S)-2-(3,5-difluoro-4-(3-((4-(methoxycarbonyl)morpholin-2-yl)methyl)-7-methylimidazo[1,2-a]pyridin-2-yl)phenyl)oxazole-4-carboxylic acid], the IC50 was 10 to 50 nM.
The same measure, in the same setting: the same measure for `COC(=O)N1CCO[C@@H](Cc2c(-c3c(F)cc(-n4ccc(S(N)(=O)=O)c4)cc3F)nc3cc(C)ccn23)C1` [Compound 134, methyl (S) 2-((2-(2,6-difluoro-4-(3-sulfamoyl-1H-pyrrol-1-yl)phenyl)-7-methylimidazo[1,2-a]pyridin-3-yl)methyl)morpholine-4-carboxylate]: 10 to 50 nM; for `COC(=O)N1CCO[C@@H](Cc2c(-c3c(F)cc(NC4CCC(=O)CC4)cc3F)nc3cc(C)ccn23)C1` [Compound 80, methyl (S)-2-((2-(2,6-difluoro-4-((4-carbonylcyclohexyl)amino)phenyl)-7-methylimidazo[1,2-a]pyridin-3-yl)methyl) morpholine-4-carboxylate]: 10 to 50 nM; for `CNC(=O)c1cc(F)c(-c2nc3cc(C)ccn3c2CN2CCNCC2=O)c(F)c1` [Compound 48, (S)-2-((2-(2,6-difluoro-4-(methylcarbamoyl)phenyl)-7-methylimidazo[1,2-a]pyridin-3-yl)methyl)-2-carbonyl-piperazine]: 50 to 200 nM.
As for `CNC(=O)c1cc(F)c(-c2[nH]c3cc(C)ccc3c2C[C@H]2CN(C(=O)OC)CCO2)c(F)c1` [Compound 39], under setting [1], the 50% inhibitory concentration (IC50) was in the range of 200 to 5000 nM.
Turning to `COC(=O)N1CCO[C@@H](Cc2c(-c3c(F)cc(NC4CC(=O)C4)cc3F)nc3cc(C)ccn23)C1` [Compound 78], the half-maximal inhibitory concentration (IC50) was 10 to 50 nM.
Take `COC(=O)N1CCO[C@@H](Cc2c(-c3c(F)cc(NC(=O)CC(C)C(=O)O)cc3F)nc3cc(C)ccn23)C1` (stereo partly drawn) [Compound 92]: the 50% inhibitory concentration (IC50) is 10 to 50 nM.
Regarding `CCC(=O)N1CCO[C@@H](Cc2c(-c3c(F)cc(NC(C)=O)cc3F)nc3cc(Cl)ccn23)C1` [Compound 154], the IC50 is less than 10 nM.
Turning to `CNC(=O)c1cc(F)c(-c2nc3n(c2C[C@H]2CN(C(=O)OC)CCO2)CCC(C)C3)c(F)c1` (stereo partly drawn) [Compound 44, methyl (2S)-2-((2-(2,6-difluoro-4-(methylcarbamoyl)phenyl)-7-methyl-5,6,7,8-tetrahydroimidazo[1,2-a]pyridin-3-yl)methyl)morpholine-4-carboxylate], the IC50 is less than 10 nM.
Still for that read-out and setting: the same measure for `CNC(=O)c1cc(F)c(-c2oc3nc(C)ccc3c2C[C@H]2CN(C(=O)OC)CCO2)c(F)c1` [Compound 56, methyl (S)-2-((2-(2,6-difluoro-4-(methylcarbamoyl)phenyl)-6-methylfurano[2,3-b]pyridin-3-yl)methyl)morpholine-4-carboxylate]: less than 10 nM.
Same read-out and setting: the same measure for `CNC(=O)C1(c2cc(F)c(-c3nc4cc(C)ccn4c3C[C@H]3CN(C(=O)OC)CCO3)c(F)c2)CC1` [Compound 66]: 50 to 200 nM; for `CNC(=O)c1cc(F)c(-c2oc3cc(C)ncc3c2C[C@H]2CN(C(=O)OC)CCO2)c(F)c1` [Compound 55, methyl (S)-2-((2-(2,6-difluoro-4-(methylcarbamoyl)phenyl)-6-methylfurano[3,2-c]pyridin-3-yl)methyl)morpholine-4-carboxylate]: less than 10 nM; for `COC(=O)N1CCO[C@@H](Cc2c(-c3c(F)cc(N4C(=O)C=CC4=O)cc3F)nc3cc(C)ccn23)C1` [Compound 28, methyl (S)-2-((2-(2,6-difluoro-4-(2,5-dioxo-2,5-dihydropyrrol-1-yl)phenyl)-7-methylimidazo[1,2-a]pyridin-3-yl)methyl)morpholine-4-carboxylate]: 10 to 50 nM.
The same measure, in the same setting: the same measure for `COC(=O)N1CCO[C@@H](Cc2c(C3CCN(C(C)=O)CC3)nc3cc(C)ccn23)C1` [Compound 30, methyl (S)-2-((2-(1-acetylpiperidin-4-yl)-7-methylimidazo[1,2-a]pyridin-3-yl)methyl)morpholine-4-carboxylate]: 10 to 50 nM.
In the case of `CCOC(=O)c1cn(-c2cc(F)c(-c3nc4cc(C)ccn4c3C[C@H]3CN(C(=O)OC)CCO3)c(F)c2)cn1` [Compound 51, methyl (S)-2-((2-(4-(4-(carbethoxy<ethoxycarbonyl>)-1H-imidazol-1-yl)-2,6-difluorophenyl)-7-methylimidazo[1,2-a]pyridin-3-yl)methyl)morpholine-4-carboxylate], the IC50 is 50 to 200 nM.
Take `CNC(=O)c1c[nH]c(-c2nc3cc(C)ccn3c2C[C@H]2CN(C(=O)OC)CCO2)c1F` [Compound 24]: the IC50 under setting [1] lay in the range of 200 to 5000 nM.
In the case of `COC(=O)N1CCO[C@@H](Cc2c(-c3c(F)cc(N4C=CCC4=O)cc3F)nc3cc(C)ccn23)C1` [Compound 100], the half-maximal inhibitory concentration (IC50) lay in the range of 10 to 50 nM.
On the same count and under the same terms, next, `COC(=O)N1CCO[C@@H](Cc2c(-c3c(F)cc(-n4cnc(C#N)c4)cc3F)nc3cc(C)ccn23)C1` [Compound 192, methyl (S)-2-((2-(4-(4-cyano-1H-imidazol-1-yl)-2,6-difluorophenyl)-7-methylimidazo[1,2-a]pyridin-3-yl)methyl)morpholine-4-carboxylate]: 10 to 50 nM; `COC(=O)N1CCO[C@@H](Cc2c(-c3c(F)cc(-n4cc[nH]c4=O)cc3F)nc3cc(C)ccn23)C1` [Compound 98]: 10 to 50 nM; `COC(=O)N1CCC[C@@H](Cc2c(-c3c(F)cc(S(N)(=O)=O)cc3F)nc3cc(C)ccn23)C1` [Compound 187]: 50 nM.
Regarding `COC(=O)N1CCO[C@@H](Cc2c(-c3cnc(NC(C)=O)[nH]3)nc3cc(C)ccn23)C1` [Compound 1], the IC50 under setting [1] lay within 200 to 5000 nM.
With `COC(=O)N1CCO[C@@H](Cc2c(-c3c(F)cc(C4(C(N)=O)CC4)cc3F)nc3cc(C)ccn23)C1` [Compound 65], the IC50 was 50 to 200 nM.
For the compound `COC(=O)N1CCO[C@@H](Cc2c(-c3c(F)cc(-c4nc(C(F)(F)F)c[nH]4)cc3F)nc3cc(C)ccn23)C1` [Compound 37, methyl (S)-2-((2-(2,6-difluoro-4-(4-trifluoromethyl-1H-imidazol-2-yl)phenyl)-7-methylimidazo[1,2-a]pyridin-3-yl)methyl)morpholine-4-carboxylate], the IC50 is less than 10 nM.
Take `CNC(=O)c1cc(F)c(-c2cc3cc(C)ccc3n2C[C@H]2CN(C(=O)OC)CCO2)c(F)c1` [Compound 40, methyl (S)-2-((2-(2,6-difluoro-4-(methylcarbamoyl)phenyl)-5-methyl-1H-indol-1-yl)methyl)morpholine-4-carboxylate]: under setting [1], the concentration for half-maximal inhibition (IC50) lay in the range of 200 to 5000 nM.
With `COC(=O)N1CCO[C@@H](Cc2c(-c3c(F)cc(NC(=O)c4ccncc4)cc3F)nc3cc(C)ccn23)C1` [Compound 86], the IC50 fell in the range of 10 to 50 nM.
